From patent US20230089368A1, “POLYAROMATIC UREA DERIVATIVES AND THEIR USE IN THE TREATMENT OF MUSCLE DISEASES” (ANAGENESIS BIOTECHNOLOGIES S.A.S., priority 2019, published 2023)
Structures can show the parent of a compound that is named as a salt.

Experiments:
[1] = system: satellite-like cells (Pax7-positive cells) in hMP; experiment: Myotube assay: Pax7-positive (satellite-like) cell quantification; type: cell-based, human; parameters: key to Pax7% (pool of Pax7-positive cells) / Pax7: −: Depletes the pool of cells, while positively affects the myotubes; +: Maintains or increases the pool of cells, with at least 1 of the highest concentration known to be cytotoxic; ++: Maintains or increases the pool of cells, without any toxicity; conditions: myotube assay, compounds incubated 3 days
Outline: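 DMD hiPSC-derived muscle progenitors (hMP) proliferated 4 days, then plated on collagen I in K5 medium with 5 μM Y-27632. Compound added at 1.5 nM–30 μM for 3 days at 37° C, then cells fixed and immunostained. Pax7-positive cells counted as percentage of total nuclei, duplicates averaged.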

[2] = system: muscle progenitors (hMP) from DMD hiPSC or WT hiPSC; experiment: Myotube assay: myogenic activity (total myotube area per well); type: cell-based, human; conditions: Homo sapiens, 72 h; myotube assay, compounds incubated 3 days; read-out: MA (normalized Myotube Area, efficacy)
Outline: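 DMD or WT hiPSC-derived muscle progenitors plated on collagen I in K5 medium with 5 μM Y-27632, treated with compound (1.5 nM–30 μM) for 3 days at 37° C. Cells were fixed, stained for alpha-actinin and imaged for total myotube area per well. EC50 and normalized myotube area (MA) taken from duplicate-averaged data.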

| SMILES | Pax7% (pool of Pax7-positive cells) [1] | Emax [2] |
| --- | --- | --- |
| CSc1cc(Oc2ccnc3[nH]c(=O)cnc23)ccc1NC(=O)Nc1cc(C(C)(C)C)nn1-c1ccc(C#N)cc1 [(cc), 1-(3-(tert-butyl)-1-(4-cyanophenyl)-1H-pyrazol-5-yl)-3-(2-(methylthio)-4-((3-oxo-3,4-dihydropyrido[2,3-b]pyrazin-8-yl)oxy)phenyl)urea] | + | ≥ 75% |
| CSc1cc(Oc2ccnc3[nH]c(=O)cnc23)ccc1NC(=O)Nc1cc(C(C)(C)C)nn1-c1ccc(C)c(C)c1 [(cd), 1-(3-(tert-butyl)-1-(3,4-dimethylphenyl)-1H-pyrazol-5-yl)-3-(2-(methylthio)-4-((3-oxo-3,4-dihydropyrido[2,3-b]pyrazin-8-yl)oxy)phenyl)urea] | ++ | ≥ 75% |
| CSc1cc(Oc2ccnc3[nH]c(=O)cnc23)ccc1NC(=O)Nc1cc(C(C)(C)C)nn1-c1ccc(OCCN2CCCCC2)cc1 [(ce), 1-(3-(tert-butyl)-1-(4-(2-(piperidin-1-yl)ethoxy)phenyl)-1H-pyrazol-5-yl)-3-(2-(methylthio)-4-((3-oxo-3,4-dihydropyrido[2,3-b]pyrazin-8-yl)oxy)phenyl)urea] | + | ≥ 75% |
| CSc1cc(Oc2ccnc3[nH]c(=O)cnc23)ccc1NC(=O)Nc1cc(C(C)(C)C)nn1-c1ccc(OCCN2CCOCC2)cc1 [(cf), 1-(3-(tert-butyl)-1-(4-(2-morpholinoethoxy)phenyl)-1H-pyrazol-5-yl)-3-(2-(methylthio)-4-((3-oxo-3,4-dihydropyrido[2,3-b]pyrazin-8-yl)oxy)phenyl)urea] | − | ≥ 75% |
| CSc1cc(Oc2ccnc3c2CCC(=O)N3)ccc1NC(=O)Nc1cncc(C(F)(F)F)c1 [(cg), 1-(2-(methylthio)-4-((7-oxo-5,6,7,8-tetrahydro-1,8-naphthyridin-4-yl)oxy)phenyl)-3-(5-(trifluoromethyl)pyridin-3-yl)urea] | − | ≥ 75% |
| CSc1cc(Oc2ccnc(N(CCN(C)C)C(=O)OC(C)(C)C)c2)ccc1NC(=O)Nc1cc(C(C)(C)C)nn1-c1ccccc1 [(ch), Tert-Butyl (4-(4-(3-(3-(tert-butyl)-1-phenyl-1H-pyrazol-5-yl)ureido)-3-(methylthio)phenoxy)pyridin-2-yl)(2-(dimethylamino)ethyl)carbamate] | + | 50 to 75% |
| CSc1cc(Oc2ccnc3[nH]c(=O)cnc23)ccc1NC(=O)Nc1nnc(C(C)(C)C)o1 [(cj), 1-(5-(tert-butyl)-1,3,4-oxadiazol-2-yl)-3-(2-(methylthio)-4-((3-oxo-3,4-dihydropyrido[2,3-b]pyrazin-8-yl)oxy)phenyl)urea] | + | ≥ 75% |
| CSc1cc(Oc2ccnc(NCCN(C)C)c2)ccc1NC(=O)Nc1cc(C(C)(C)C)nn1-c1ccccc1 [(ck), 1-(3-(tert-butyl)-1-phenyl-1H-pyrazol-5-yl)-3-(4-((2-((2-(dimethylamino)ethyl)amino)pyridin-4-yl)oxy)-2-(methylthio)phenyl)urea Hydrochloride] | + | ≥ 75% |
| CSc1cc(Oc2ccnc3[nH]c(=O)cnc23)ccc1NC(=O)Nc1cc(C(C)(C)C)nn1-c1ccc(C)c(Cl)c1 [(cl), 1-(3-(tert-butyl)-1-(3-chloro-4-methylphenyl)-1H-pyrazol-5-yl)-3-(2-(methylthio)-4-((3-oxo-3,4-dihydropyrido[2,3-b]pyrazin-8-yl)oxy)phenyl)urea] | + | ≥ 75% |
| CSc1cc(Oc2ccnc3[nH]c(=O)cnc23)ccc1NC(=O)Nc1cc(C(C)(C)C)nn1-c1ccc(F)c(Cl)c1 [(cm), 1-(3-(tert-butyl)-1-(3-chloro-4-fluorophenyl)-1H-pyrazol-5-yl)-3-(2-(methylthio)-4-((3-oxo-3,4-dihydropyrido[2,3-b]pyrazin-8-yl)oxy)phenyl)urea] | + | ≥ 75% |
| CSc1cc(Oc2ccnc(C(=O)Nc3ccccc3)c2)ccc1NC(=O)Nc1cc(C(C)(C)C)nn1-c1ccccc1 [(co), 4-(4-(3-(3-(tert-butyl)-1-phenyl-1H-pyrazol-5-yl)ureido)-3-(methylthio)phenoxy)-N-phenylpicolinamide] | ++ | 25 to 50% |
| CC(C)(C)c1cc(NC(=O)Nc2ccc(Oc3ccnc4[nH]c(=O)cnc34)c(OC(F)(F)F)c2)n(-c2ccccc2)n1 [(cp), 1-(3-(tert-butyl)-1-phenyl-1H-pyrazol-5-yl)-3-(4-((3-oxo-3,4-dihydropyrido[2,3-b]pyrazin-8-yl)oxy)-3-(trifluoromethoxy)phenyl)urea] | + | 50 to 75% |
| CC(C)(C)c1cc(NC(=O)Nc2cc(Oc3ccnc4[nH]c(=O)cnc34)ccc2F)n(-c2ccccc2)n1 [(cq), 1-(3-(tert-butyl)-1-phenyl-1H-pyrazol-5-yl)-3-(2-fluoro-5-((3-oxo-3,4-dihydropyrido[2,3-b]pyrazin-8-yl)oxy)phenyl)urea] | ++ | ≥ 75% |
| CSc1cc(Oc2ccnc3[nH]c(=O)cnc23)ccc1NC(=O)Nc1cc(C(C)(C)C)nn1-c1ccc(OCCCN(C)C)cc1 [(cr), 1-(3-(tert-butyl)-1-(4-(3-(dimethylamino)propoxy)phenyl)-1H-pyrazol-5-yl)-3-(2-(methylthio)-4-((3-oxo-3,4-dihydropyrido[2,3-b]pyrazin-8-yl)oxy)phenyl)urea] | + | ≥ 75% |
| CC(C)(C)c1cc(NC(=O)Nc2ccc(C(=O)c3ccncc3)cc2)n(-c2ccccc2)n1 [(cs), 1-(3-(tert-butyl)-1-phenyl-1H-pyrazol-5-yl)-3-(4-isonicotinoylphenyl)urea] | + | 25 to 50% |
| CSc1cc(Oc2ccnc3c2OCC(=O)N3)ccc1NC(=O)Nc1cc(C(C)(C)C)nn1-c1ccccc1 [(ct), 1-(3-(tert-butyl)-1-phenyl-1H-pyrazol-5-yl)-3-(2-(methylthio)-4-((3-oxo-3,4-dihydro-2H-pyrido[3,2-b][1,4]oxazin-8-yl)oxy)phenyl)urea] | + | ≥ 75% |
| CC(C)(C)c1cnc(NC(=O)Nc2ccc(Oc3ccnc4c3CCC(=O)N4)c3ccccc23)s1 [(cu), 1-(5-(tert-butyl)thiazol-2-yl)-3-(4-((7-oxo-5,6,7,8-tetrahydro-1,8-naphthyridin-4-yl)oxy)naphthalen-1-yl)urea] | ++ | ≥ 75% |
| CCOC(=O)Nc1cc(Oc2ccc(NC(=O)Nc3cc(C(C)(C)C)nn3-c3ccccc3)c(SC)c2)ccn1 [(cv), Ethyl (4-(4-(3-(3-(tert-butyl)-1-phenyl-1H-pyrazol-5-yl)ureido)-3-(methylthio)phenoxy)pyridin-2-yl)carbamate] | + | ≥ 75% |
| CC(C)(C)c1cc(NC(=O)Nc2cccc(Oc3ccnc4[nH]c(=O)cnc34)c2F)n(-c2ccccc2)n1 [(cw), 1-(3-(tert-butyl)-1-phenyl-1H-pyrazol-5-yl)-3-(2-fluoro-3-((3-oxo-3,4-dihydropyrido[2,3-b]pyrazin-8-yl)oxy)phenyl)urea] | ++ | ≥ 75% |
| CSc1cc(Oc2ccnc(NC(=O)OCc3ccccc3)c2)ccc1NC(=O)Nc1cc(C(C)(C)C)nn1-c1ccccc1 [(cx), Benzyl (4-(4-(3-(3-(tert-butyl)-1-phenyl-1H-pyrazol-5-yl)ureido)-3-(methylthio)phenoxy)pyridin-2-yl)carbamate] | + | ≥ 75% |
| CSc1cc(Oc2ccnc3c2OCCN3)ccc1NC(=O)Nc1cc(C(C)(C)C)nn1-c1ccccc1 [(cy), 1-(3-(tert-butyl)-1-phenyl-1H-pyrazol-5-yl)-3-(4-((3,4-dihydro-2H-pyrido[3,2-b][1,4]oxazin-8-yl)oxy)-2-(methylthio)phenyl)urea] | + | ≥ 75% |
| CSc1cc(Oc2ccnc3c2CCC(=O)N3)ccc1NC(=O)Nc1cc(C(C)(C)C)no1 [(cz), 1-(3-(tert-butyl)isoxazol-5-yl)-3-(2-(methylthio)-4-((7-oxo-5,6,7,8-tetrahydro-1,8-naphthyridin-4-yl)oxy)phenyl)urea] | + | ≥ 75% |
| O=C(Nc1ccc(Oc2ccnc3[nH]c(=O)cnc23)cc1F)Nc1cc(C2(C(F)(F)F)CC2)nn1-c1ccccc1 [(d), 1-(2-fluoro-4-((3-oxo-3,4-dihydropyrido[2,3-b]pyrazin-8-yl)oxy)phenyl)-3-(1-phenyl-3-(1-(trifluoromethyl)cyclopropyl)-1H-pyrazol-5-yl)urea] | + | 50 to 75% |
| CCOC(=O)Nc1cc(Oc2ccc(NC(=O)Nc3cc(C(C)(C)C)nn3-c3ccccc3)c3ccccc23)ccn1 [(da), Ethyl (4-((4-(3-(3-(tert-butyl)-1-phenyl-1H-pyrazol-5-yl)ureido)naphthalen-1-yl)oxy)pyridin-2-yl)carbamate] | + | ≥ 75% |
| CCOC(=O)Nc1cc(Oc2ccc(NC(=O)Nc3cc(C(C)(C)C)no3)c3ccccc23)ccn1 [(db), Ethyl (4-((4-(3-(3-(tert-butyl)isoxazol-5-yl)ureido)naphthalen-1-yl)oxy)pyridin-2-yl)carbamate] | + | ≥ 75% |
| CCOC(=O)Nc1cc(Oc2ccc(NC(=O)Nc3ncc(C(C)(C)C)s3)c3ccccc23)ccn1 [(dc), Ethyl (4-((4-(3-(5-(tert-butyl)thiazol-2-yl)ureido)naphthalen-1-yl)oxy)pyridin-2-yl)carbamate] | + | ≥ 75% |
